For one data set, the system named is Apis mellifera. The following applies: acute, mortality.
In the next data set the test system is Tagia sp. The following applies: chronic/long-term; duration: 56 days; reproduction.
The test system of another data set is Oryctolagus sp. The settings on record: reproduction developmental; clinical signs.
For another data set, the system named is Rattus norvegicus. The settings on record: for LD50: acute, mortality.
In another data set the test system is Canidae. The settings on record: chronic; duration: 1 years; oral; Dog Other; gross pathology.
For another data set, the system named is Pimephales promelas. The following applies: acute; duration: 96 hours; mortality.
Another data set deals with Folsomia candida. The settings on record: chronic/long-term; duration: 28 days; reproduction.
In a further data set the test system is Oncorhynchus mykiss. The settings on record: acute; duration: 96 hours; mortality.
The test system of the next data set is Bibionidae. The settings on record: chronic/long-term; duration: 28 days.
A further data set concerns Typhlodromus pyri. Put plainly: LR50; higher = less toxic. The following applies: not reported; mortality.
The subject of the next data set is Aphidius rhopalosiphi. Nature of the data set: LR50; higher = less toxic. The settings on record: not reported; mortality.
Where [1] appears, read: chronic, duration: 2 years, organ weight.

Each structure is given as a SMILES string. Values after ≈ are worked out from the molar mass of the structure shown.

For `O=C(O)COc1ccc(Cl)cc1Cl` [2,4-Dichlorophenoxyacetic acid], the LD50 with Apis mellifera (dermal) is above 100 µg/piece; with Apis mellifera (oral, unspecified), 94 µg/piece; with Rattus norvegicus it was 486 mg/kg. The compound further showed an NOEC in the data set on Tagia sp. of 62.5 mg/kg. Besides, the no observed adverse effect level (NOAEL) with Oryctolagus sp. came to 30 mg/kg-day; in the data set on Rattus norvegicus (chronic) it was 20.6 mg/kg-day; in the data set with Rattus norvegicus (setting [1]), 2.48 mg/kg-day; in the data set on Canidae, 2.04 mg/kg-day. In addition, the median lethal concentration (LC50) with Pimephales promelas was 100 µg/mL (≈ 452 µM).
Compound `Oc1ccc(Cl)cc1Cl` [2,4-Dichlorophenol] displayed an NOEC in the data set on Folsomia candida of 0.63 mg/kg.
For `O=C(O)CCCOc1ccc(Cl)cc1Cl` [2,4-Dichlorophenoxybutyric acid], the LD50 is above 100 µg/piece in the data set on Apis mellifera (dermal); above 100 µg/piece in the data set with Apis mellifera (oral, unspecified); 1470 mg/kg in the data set with Rattus norvegicus (oral); 1540 mg/kg with Colinus virginianus (acute, oral, mortality). In the data set on Oncorhynchus mykiss, the LC50 came to 3 µg/mL (≈ 12 µM). Besides, the NOEC in the data set on Tagia sp. came to 82.1 mg/kg; with Bibionidae, 24.6 mg/kg; in the data set with Colinus virginianus (chronic), 101 mg/kg-day. Also, the NOAEL was 30 mg/kg-day in the data set on Oryctolagus sp.; 2.48 mg/kg-day with Rattus norvegicus (setting [1]); 22.5 mg/kg-day in the data set with Rattus norvegicus (reproduction developmental, reproduction); 2.04 mg/kg-day in the data set on Canidae. Besides, the LR50 in the data set on Typhlodromus pyri and in the data set on Aphidius rhopalosiphi was above 1800 g/ha each time.

What is called NOAEL is the highest tested level that showed no adverse finding. One may read the LC50 as the concentration that kills 50% of the test population.

Values taken from EPA's ToxValDB 9.5 (doi:10.2903/j.efsa.2016.4500).
